# According to patent US9067898B1, “Isothiazole derivatives as GPR120 agonists for the treatment of type II diabetes” (Janssen Pharmaceutica NV, priority 2014, dated 2015):
# Tested on: C57B16 mice on a high fat diet (DIO)
# Experiment: GPR120 DIO mice OGTT screening
# Type: in vivo, mouse
# Design: DIO Lowering Glucose AUC (−30 to 90) @ 10 mg/kg: unit not given here
# Conditions: 10 mg/kg dosed 30 min before PO glucose, change from vehicle
# Procedure: 18-22 week old, C57B16 mice on a high fat diet (60% HFD) for 12-16 weeks (ave. body weight ˜37-41 g) were fasted for 6 hr, with removal of food occurring at 7 am on the morning of the study. The animals were sorted into treatment groups the day before the study by body weight. Animals outside the bounds of ˜30-50 g were left out of the study. The animals had been handled and shammed a total of 5-8 days (1-3 days immediately prior to the study). Glucose (in 1 mL syringes) was drawn up the morning of the study. Test compounds were kept spinning and were only drawn into 1 ml syringes prior to study commencement. Animals were bled via tail snip to determine basal glucose levels prior to dosing of treatments. An Ascensia BREEZE Blood Glucose Monitoring System by Bayer was used for determining glucose levels.
# Animals were moved into the testing room at ˜9-11 am, to yield them time to acclimate. The bleeds and dosing started at approximately 1 pm in 30-second intervals per animal. All groups were dosed 30 minutes prior to glucose administration at a dose volume of 10 ml/kg (the dose volume was calculated separately for each individual animal). Test compounds were administered at one or more of the following dosages: 0.1 mg/kg, 0.3 mg/kg, 1 mg/kg, 3 mg/kg and 10 mg/kg.
# Thirty minutes after the first dose (with test compound) animals were bled again for a second baseline, or T=0, and immediately dosed with glucose (20% solution; TEKNOVA, 250 ml sterile bottle w/catalogue number G0525) via a PO injection. The exact dose volume for glucose was also calculated separately for each individual animal.
# Blood glucose was measured at 15, 30, 45, 60, and 90 minutes post-glucose administration via the snipped tail. If an animal reached a value of “HI”, the upper limit of the glucometer (600 mg/dl) was substituted as the blood glucose value and the study was analyzed as normal with no exclusions. If 50% or more of any treatment group reaches a “HI” value at least once, the study was considered invalid and repeated. Glucose values were typed into an EXCEL spreadsheet where they were used to calculate glucose AUC and delta AUC post-compound and post-glucose. The glucose excursion curves and the different versions of the AUC's were graphed in GraphPad Prism 5.
# Note: All statistics completed in this study were completed using the statistical software package GraphPad Prism 5. Standard procedures for analyzing data sets from screening GPR120 compounds in DIO mouse OGTT's were as listed here below. In addition to the statistics that were run using GraphPad Prism 5, Microsoft Excel was used to calculate the percent changes in AUC from vehicle groups as detailed below.
# Change from −30 to 0 BSLN Glucose, Raw Glucose AUC −30 to 90 min, Delta Glucose AUC −30 to 90 min, Raw Glucose AUC 0 to 90 min, Delta Glucose AUC 0 to 90 min were analyzed using Column Statistics Analysis, with mean values used to calculate % change from the vehicle mean group, as well as mean, SEM and/or % change from vehicle, where appropriate; and using One-Way ANOVA w/a Tukey Post-Test (Comparing All Pairs of Columns) with each treatment group examined to see if it was statistically significant compared to vehicle (*=P<0.05, **=P<0.01, ***=P<0.001).
# Representative compounds of the present invention were tested according to the procedure as described in Biological Example 3, with results as listed in Table 2, below. Where a compound was tested more than once, each result is listed individually.
row,Molecule,DIO Lowering Glucose AUC (−30 to 90) @ 10 mg/kg
1,"O=C(O)CCc1cc(F)c(OCc2c(-c3ccc(Cl)c(F)c3)nsc2C(F)(F)F)c(F)c1 [Cpd 67, 3-(4-((3-(4-chloro-3-fluorophenyl)-5-(trifluoromethyl)isothiazol-4-yl)methoxy)-3,5-difluorophenyl)propanoic acid]",−0.78
2,"Cc1ccc(-c2nsc(C(F)(F)F)c2COc2c(F)cc(CC(C)C(=O)O)cc2F)c(F)c1 (stereo not shown) [Cpd 76, 3-(3,5-difluoro-4-[[3-(2-fluoro-4-methylphenyl)-5-(trifluoromethyl)-1,2-thiazol-4-yl]methoxy]phenyl)-2-methylpropanoic acid]",−0.8
3,"CCc1ccc(-c2nsc(C(F)(F)F)c2COc2ccc(CCC(=O)O)c(F)c2F)cc1 [Cpd 73, 3-(4-((3-(4-ethylphenyl)-5-(trifluoromethyl)isothiazol-4-yl)methoxy)-2,3-difluorophenyl)propanoic acid]",−0.51
4,"O=C(O)CCc1cc(F)c(OCc2c(C3CCCC3)nsc2C(F)(F)F)c(F)c1 [Cpd 71, 3-(4-[[3-cyclopentyl-5-(trifluoromethyl)-1,2-thiazol-4-yl]methoxy]-3,5-difluorophenyl)propanoic acid]",−0.52
5,"Cc1ccc(-c2nsc(C(F)(F)F)c2COc2c(F)cc(CCC(=O)O)cc2F)c(F)c1 [Cpd 65, 3-(3,5-difluoro-4-[[3-(2-fluoro-4-methylphenyl)-5-(trifluoromethyl)-1,2-thiazol-4-yl]methoxy]phenyl)propanoic acid]",−0.61
6,"O=C(O)CCc1cc(F)c(OCc2c(-c3ccc(Cl)cc3F)nsc2C(F)(F)F)c(F)c1 [Cpd 74, 3-(4-((3-(4-chloro-2-fluorophenyl)-5-(trifluoromethyl)isothiazol-4-yl)methoxy)-3,5-difluorophenyl)propanoic acid]",−0.71
7,"3-(4-[[3-(4-ethylphenyl)-5-(trifluoromethyl)-1,2-thiazol-4-yl]methoxy]-3,5-difluorophenyl)propanoic acid [Cpd 70]",−0.5

# Same assay, conditions: Mus musculus, read-out: DIO Lowering Glucose AUC (−30 to 90) @ 10 mg/kg, heading: DIO Lowering Glucose AUC @ 10 mg/kg, 10 mg/kg dosed 30 min before PO glucose, change from vehicle
row,Molecule,change in vivo at 10 mg/kg
1,"Cc1c(CCC(=O)O)ccc(OCc2sc(F)cc2-c2ccc(Cl)cc2)c1C [Cpd 3, 3-(4-((3-(4-chlorophenyl)-5-fluorothiophen-2-yl)methoxy)-2,3-dimethylphenyl)propanoic acid]",-49%
2,"CCc1ccc(-c2cc(F)sc2COc2ccc(CCC(=O)O)c(C)c2C)cc1 [Cpd 1, 3-(4-[[3-(4-ethylphenyl)-5-fluorothiophen-2-yl]methoxy]-2,3-dimethylphenyl)propanoic acid]",-26%

# Tested on: C57bl/6J mice
# Experiment: GPR120 C57bl6 mouse IPGTT
# Type: in vivo
# Conditions: 10 mg/kg dosed 30 min before glucose IP 1.5 g/kg
# Procedure: Male, C57bl/6J Mice were ordered in at 8 weeks of age from Jackson Labs. Individual mice weighed anywhere in the range of 25-30 grams on study day. The mice were fasted, with removal of food occurring at 7 am on the morning of the study. Animals were moved into the room at 10:00 am, to give them time to acclimate. Glucose (insulin syringes) was drawn up either the night before or the morning of the study. Glucose was dosed (IP) at 1.5 g/kg at 7.5 ml/kg (20% glucose straight TEKNOVA, 250 ml sterile bottle w/catalogue number G0525). Test compounds were kept spinning and were only drawn into the syringes prior to study commencement. Animals were bled via tail snip to determine basal glucose levels prior to dosing of treatments. An Ascensia BREEZE Blood Glucose Monitoring System by Bayer (using unique 10-test disks) was used for determining glucose levels. The bleeds started at approximately 12:45 pm and dosing started, at 1-minute intervals, immediately after. All groups were dosed 30 minutes prior to glucose administration at a dose volume of 10 ml/kg (the dose volume was calculated separately for each individual animal). Thirty minutes after the first dose animals were bled again for a second baseline, or T=0, and immediately dosed with glucose via an i.p. injection. The exact dose volume for glucose was also calculated separately for each individual animal. […]
row,Molecule,C57 IPGTT 10 mg/kg
1,"3-(4-[[3-(4-ethylphenyl)-5-(trifluoromethyl)-1,2-thiazol-4-yl]methoxy]-1-benzothiophen-7-yl)propanoic acid [Cpd 92]",−41
